Results as given in patent US20170190671A1, “BIS(ARYL)CATECHOL DERIVATIVES AS HERBICIDES” (E I DU PONT DE NEMOURS AND COMPANY, priority 2014, published 2017).

How the values were obtained:
Experiment in all cases: Test C postemergence
Type in all cases: in vivo
[1] = tested on: yellow nutsedge (Cyperus esculentus); conditions: Cyperus, post-emergence, 336 h, Postemergence, scale 0 to 100, read-out: Plant response rating, Nutsedge, Yellow
In short: (§1)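 Greenhouse test, preemergence on seeded soil or postemergence on 1- to 4-leaf plants. Response is a visual 0-100 rating versus controls, taken 13-15 days after treatment.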

[2] = tested on: chickweed (common chickweed, Stellaria media); conditions: Stellaria media, post-emergence, Postemergence, scale 0 to 100, read-out: Plant response rating, Chickweed
In short: as §1

[3] = tested on: soybean (Glycine max); conditions: Glycine max, post-emergence, Postemergence, scale 0 to 100, read-out: Plant response rating, Soybean
In short: as §1

[4] = tested on: giant foxtail (Setaria faberii); conditions: Setaria faberi, post-emergence, 336 h, Postemergence, scale 0 to 100, read-out: Plant response rating, Foxtail, Giant
In short: as §1

[5] = tested on: pigweed (Amaranthus retroflexus); conditions: Amaranthus retroflexus, post-emergence, 336 h, Postemergence, scale 0 to 100, read-out: Plant response rating, Pigweed
In short: as §1

[6] = tested on: corn (Zea mays); conditions: Zea mays, post-emergence, 336 h, Postemergence, scale 0 to 100
In short: as §1

[7] = tested on: barnyardgrass (Echinochloa crus-galli); conditions: Echinochloa crus-galli, post-emergence, Postemergence, scale 0 to 100, read-out: Plant response rating, Barnyardgrass
In short: as §1

[8] = tested on: lambsquarters (Chenopodium album); conditions: Chenopodium album, post-emergence, 336 h, Postemergence, scale 0 to 100, read-out: Plant response rating, Lambsquarters
In short: as §1

[9] = tested on: johnsongrass (Sorghum halepense); conditions: Sorghum halepense, post-emergence, 336 h, Postemergence, scale 0 to 100, read-out: Plant response rating, Johnsongrass
In short: as §1

[10] = tested on: oilseed rape (Brassica napus); conditions: Brassica napus, post-emergence, Postemergence, scale 0 to 100, read-out: Plant response rating, Oilseed Rape
In short: as §1

[11] = tested on: waterhemp (common waterhemp, Amaranthus rudis); conditions: Amaranthus tuberculatus, post-emergence, Postemergence, scale 0 to 100, read-out: Plant response rating, Waterhemp
In short: as §1

[12] = tested on: ragweed (common ragweed, Ambrosia elatior); conditions: Ambrosia artemisiifolia, post-emergence, 336 h, Postemergence, scale 0 to 100, read-out: Plant response rating, Ragweed
In short: as §1

[13] = tested on: Italian ryegrass (Lolium multiflorum); conditions: Lolium multiflorum, post-emergence, 336 h, Postemergence, scale 0 to 100, read-out: Plant response rating, Ryegrass, Italian
In short: as §1

[14] = tested on: blackgrass (Alopecurus myosuroides); conditions: Alopecurus myosuroides, post-emergence, 336 h, Postemergence, scale 0 to 100, read-out: Plant response rating, Blackgrass
In short: as §1

[15] = tested on: wild oat (Avena fatua); conditions: Avena fatua, post-emergence, Postemergence, scale 0 to 100, read-out: Plant response rating, Oat, Wild
In short: as §1

In the case of `N#Cc1cccc(Oc2ncc(Cl)cn2)c1Oc1ncc(Cl)cn1` [Compound 3, 2,3-bis[(5-chloro-2-pyrimidinyl)oxy]benzonitrile], the pest or weed control at 31 g/ha ([1]; 31 g ai/ha) is reported as 0%, the pest or weed control at 62 g/ha ([1]; 62 g ai/ha) is reported as 0% and the pest or weed control at 125 g/ha ([1]; 125 g ai/ha) is reported as 5%. For the same compound, the pest or weed control at 250 g/ha ([1]; 250 g ai/ha) was 35%, the pest or weed control at 31 g/ha ([2]; 31 g ai/ha) was 50% and the pest or weed control at 62 g/ha ([2]; 62 g ai/ha) was 85%. For the same compound, the pest or weed control at 125 g/ha ([2]; 125 g ai/ha) was 90%, the pest or weed control at 250 g/ha ([2]; 250 g ai/ha) was 95% and the plant injury at 31 g/ha ([3]; 31 g ai/ha) was 85%. For the same compound, the plant injury at 62 g/ha ([3]; 62 g ai/ha) was 90%, the plant injury at 125 g/ha ([3]; 125 g ai/ha) was 95% and the plant injury at 250 g/ha ([3]; 250 g ai/ha) was 95%. For the same compound, the pest or weed control at 31 g/ha ([4]; 31 g ai/ha) was 5%, the pest or weed control at 62 g/ha ([4]; 62 g ai/ha) was 15% and the pest or weed control at 125 g/ha ([4]; 125 g ai/ha) was 15%. It also gave a pest or weed control at 250 g/ha ([4]; 250 g ai/ha) of 60%, a pest or weed control at 31 g/ha ([5]; 31 g ai/ha) of 75% and a pest or weed control at 62 g/ha ([5]; 62 g ai/ha) of 80%. For the same compound, the pest or weed control at 125 g/ha ([5]; 125 g ai/ha) was 90%, the pest or weed control at 250 g/ha ([5]; 250 g ai/ha) was 100% and the Corn plant response rating (crop injury, 0 = no effect, 100 = complete kill) at 31 g/ha ([6]; 31 g ai/ha) was 10%. It also gave a Corn plant response rating (crop injury, 0 = no effect, 100 = complete kill) at 62 g/ha ([6]; 62 g ai/ha) of 35%, a Corn plant response rating (crop injury, 0 = no effect, 100 = complete kill) at 250 g/ha ([6]; 250 g ai/ha) of 75% and a pest or weed control at 31 g/ha ([7]; 31 g ai/ha) of 5%. It also gave a pest or weed control at 62 g/ha ([7]; 62 g ai/ha) of 10%, a pest or weed control at 125 g/ha ([7]; 125 g ai/ha) of 20% and a pest or weed control at 250 g/ha ([7]; 250 g ai/ha) of 60%. For the same compound, the pest or weed control at 31 g/ha ([8]; 31 g ai/ha) was 85%, the pest or weed control at 62 g/ha ([8]; 62 g ai/ha) was 95% and the pest or weed control at 125 g/ha ([8]; 125 g ai/ha) was 95%. For the same compound, the pest or weed control at 250 g/ha ([8]; 250 g ai/ha) was 100%, the pest or weed control at 31 g/ha ([9]; 31 g ai/ha) was 15% and the pest or weed control at 62 g/ha ([9]; 62 g ai/ha) was 15%. For the same compound, the pest or weed control at 125 g/ha ([9]; 125 g ai/ha) was 15%, the pest or weed control at 250 g/ha ([9]; 250 g ai/ha) was 50% and the plant injury at 31 g/ha ([10]; 31 g ai/ha) was 50%. It also gave a plant injury at 62 g/ha ([10]; 62 g ai/ha) of 60%, a plant injury at 125 g/ha ([10]; 125 g ai/ha) of 70% and a plant injury at 250 g/ha ([10]; 250 g ai/ha) of 85%. For the same compound, the pest or weed control at 31 g/ha ([11]; 31 g ai/ha) was 75%, the pest or weed control at 62 g/ha ([11]; 62 g ai/ha) was 75% and the pest or weed control at 125 g/ha ([11]; 125 g ai/ha) was 85%. The pest or weed control at 250 g/ha ([11]; 250 g ai/ha) was 98%, the pest or weed control at 31 g/ha ([12]; 31 g ai/ha) was 50% and the pest or weed control at 62 g/ha ([12]; 62 g ai/ha) was 55%. It also gave a pest or weed control at 125 g/ha ([12]; 125 g ai/ha) of 60%, a pest or weed control at 250 g/ha ([12]; 250 g ai/ha) of 85% and a pest or weed control at 31 g/ha ([13]; 31 g ai/ha) of 5%. It also gave a pest or weed control at 62 g/ha ([13]; 62 g ai/ha) of 5%, a pest or weed control at 125 g/ha ([13]; 125 g ai/ha) of 5% and a pest or weed control at 250 g/ha ([13]; 250 g ai/ha) of 35%. It also gave a pest or weed control at 31 g/ha ([14]; 31 g ai/ha) of 20%, a pest or weed control at 62 g/ha ([14]; 62 g ai/ha) of 20% and a pest or weed control at 125 g/ha ([14]; 125 g ai/ha) of 30%. For the same compound, the pest or weed control at 250 g/ha ([14]; 250 g ai/ha) was 30%, the pest or weed control at 31 g/ha ([15]; 31 g ai/ha) was 15% and the pest or weed control at 62 g/ha ([15]; 62 g ai/ha) was 30%. It also gave a pest or weed control at 125 g/ha ([15]; 125 g ai/ha) of 35% and a pest or weed control at 250 g/ha ([15]; 250 g ai/ha) of 35%.
